Experimental data published in PubChem BioAssay (NCI).
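Cultured in 96-well plates, cells were exposed to test compound for 48 hours across five concentrations. Definition used: TGI = concentration required for complete inhibition of growth.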

Tests used:
Assay in all cases: NCI tumour cell line growth inhibition, 48 h
HT29 colon = tested on: HT29 colon
XF 498 CNS = tested on: XF 498 CNS
M19-MEL melanoma = tested on: M19-MEL melanoma
OVCAR-8 ovarian = tested on: OVCAR-8 ovarian
CAKI-1 renal = tested on: CAKI-1 renal
HOP-92 NSCLC = tested on: HOP-92 NSCLC
SNB-78 CNS = tested on: SNB-78 CNS
HOP-18 NSCLC = tested on: HOP-18 NSCLC
SK-OV-3 ovarian = tested on: SK-OV-3 ovarian
MALME-3M melanoma = tested on: MALME-3M melanoma
LXFL 529 NSCLC = tested on: LXFL 529 NSCLC
NCI-H522 lung = tested on: NCI-H522 lung
EKVX NSCLC = tested on: EKVX NSCLC
UACC-257 melanoma = tested on: UACC-257 melanoma
NCI-H226 lung = tested on: NCI-H226 lung
LOX IMVI melanoma = tested on: LOX IMVI melanoma
IGROV1 ovarian = tested on: IGROV1 ovarian
HL-60(TB) leukemia = tested on: HL-60(TB) leukemia
RPMI-8226 leukemia = tested on: RPMI-8226 leukemia
K-562 leukemia = tested on: K-562 leukemia
SW-620 colon = tested on: SW-620 colon
NCI-H460 lung = tested on: NCI-H460 lung
SF-295 CNS = tested on: SF-295 CNS
DMS 273 small cell lung = tested on: DMS 273 small cell lung
RXF 393 renal = tested on: RXF 393 renal
SNB-75 CNS = tested on: SNB-75 CNS
SF-539 CNS = tested on: SF-539 CNS
M14 melanoma = tested on: M14 melanoma
CCRF-CEM leukemia = tested on: CCRF-CEM leukemia
KM20L2 colon = tested on: KM20L2 colon
A549 NSCLC = tested on: A549 NSCLC
ACHN renal = tested on: ACHN renal
SR leukemia = tested on: SR leukemia
A498 renal = tested on: A498 renal
786-0 renal = tested on: 786-0 renal
DLD-1 colon = tested on: DLD-1 colon
TK-10 renal = tested on: TK-10 renal
OVCAR-5 ovarian = tested on: OVCAR-5 ovarian
HCC-2998 colon = tested on: HCC-2998 colon
SN12C renal = tested on: SN12C renal
SF-268 CNS = tested on: SF-268 CNS
SK-MEL-28 melanoma = tested on: SK-MEL-28 melanoma
DMS 114 small cell lung = tested on: DMS 114 small cell lung
COLO 205 colon = tested on: COLO 205 colon
HOP-62 NSCLC = tested on: HOP-62 NSCLC
UACC-62 melanoma = tested on: UACC-62 melanoma
U251 CNS = tested on: U251 CNS
OVCAR-4 ovarian = tested on: OVCAR-4 ovarian
MOLT-4 leukemia = tested on: MOLT-4 leukemia
SNB-19 CNS = tested on: SNB-19 CNS
HCT-116 colon = tested on: HCT-116 colon
UO-31 renal = tested on: UO-31 renal
NCI-H23 lung = tested on: NCI-H23 lung
OVCAR-3 ovarian = tested on: OVCAR-3 ovarian
KM12 colon = tested on: KM12 colon
P388 leukemia = tested on: P388 leukemia
SK-MEL-5 melanoma = tested on: SK-MEL-5 melanoma
SK-MEL-2 melanoma = tested on: SK-MEL-2 melanoma
MCF7 breast = tested on: MCF7 breast
NCI/ADR-RES ovarian = tested on: NCI/ADR-RES ovarian
HCT-15 colon = tested on: HCT-15 colon
P388/ADR leukemia = tested on: P388/ADR leukemia
SN12K1 renal = tested on: SN12K1 renal
RXF-631 renal = tested on: RXF-631 renal

With `O=C(O)C(C(=O)C(=O)C(C(=O)O)c1ccc(Cl)cc1)c1ccc(Cl)cc1` (stereo not drawn) the TGI (HT29 colon) was 11.1 µM, the TGI (XF 498 CNS) was 5.95 µM and the TGI (M19-MEL melanoma) was 12.5 µM. The TGI (OVCAR-8 ovarian) was 6.23 µM, the TGI (CAKI-1 renal) was 13.6 µM and the TGI (HOP-92 NSCLC) was 8.89 µM. It also gave a TGI (SNB-78 CNS) of 13.9 µM, a TGI (HOP-18 NSCLC) of 18.1 µM and a TGI (SK-OV-3 ovarian) of 18.2 µM. For the same molecule, the TGI (MALME-3M melanoma) was 10.4 µM, the TGI (LXFL 529 NSCLC) was 10.7 µM and the TGI (NCI-H522 lung) was 4.45 µM. The TGI (EKVX NSCLC) was 13.3 µM, the TGI (UACC-257 melanoma) was 11.4 µM and the TGI (NCI-H226 lung) was 16.4 µM. It also gave a TGI (LOX IMVI melanoma) of 8.79 µM, a TGI (IGROV1 ovarian) of 9.03 µM and a TGI (HL-60(TB) leukemia) of 6.82 µM. For the same molecule, the TGI (RPMI-8226 leukemia) was 5.91 µM, the TGI (K-562 leukemia) was 10.7 µM and the TGI (SW-620 colon) was 13.5 µM. For the same molecule, the TGI (NCI-H460 lung) was 13.7 µM, the TGI (SF-295 CNS) was 20.8 µM and the TGI (DMS 273 small cell lung) was 12.9 µM. The TGI (RXF 393 renal) was 8.37 µM, the TGI (SNB-75 CNS) was 8.89 µM and the TGI (SF-539 CNS) was 4.6 µM. It also gave a TGI (M14 melanoma) of 16.4 µM, a TGI (CCRF-CEM leukemia) of 10 µM and a TGI (KM20L2 colon) of 11.3 µM. The TGI (A549 NSCLC) was 11.2 µM, the TGI (ACHN renal) was 12.8 µM and the TGI (SR leukemia) was 6 µM. The TGI (A498 renal) was 16.6 µM, the TGI (786-0 renal) was 15.7 µM and the TGI (DLD-1 colon) was 14.1 µM. For the same molecule, the TGI (TK-10 renal) was 12.3 µM, the TGI (OVCAR-5 ovarian) was 13.6 µM and the TGI (HCC-2998 colon) was 14.1 µM. The TGI (SN12C renal) was 10.8 µM, the TGI (SF-268 CNS) was 11.9 µM and the TGI (SK-MEL-28 melanoma) was 15.7 µM. It also gave a TGI (DMS 114 small cell lung) of 5.64 µM, a TGI (COLO 205 colon) of 18.8 µM and a TGI (HOP-62 NSCLC) of 16.9 µM. The TGI (UACC-62 melanoma) was 3.91 µM, the TGI (U251 CNS) was 12 µM and the TGI (OVCAR-4 ovarian) was 6.96 µM. For the same molecule, the TGI (MOLT-4 leukemia) was 5 µM, the TGI (SNB-19 CNS) was 14.3 µM and the TGI (HCT-116 colon) was 12.1 µM. The TGI (UO-31 renal) was 15.4 µM, the TGI (NCI-H23 lung) was 5.6 µM and the TGI (OVCAR-3 ovarian) was 10.2 µM. The TGI (KM12 colon) was 13.4 µM.
Molecule `C[C@H](N)C(=O)N[C@@H]1[C@H]2C(=C(O)C[C@@H](O)[C@@H]2O)C(=O)O[C@@H]1C` has a TGI (P388 leukemia) greater than 100 µM, a TGI (SK-MEL-5 melanoma) greater than 100 µM and a TGI (HT29 colon) greater than 100 µM. For the same molecule, the TGI (XF 498 CNS) was greater than 100 µM, the TGI (M19-MEL melanoma) was greater than 100 µM and the TGI (OVCAR-8 ovarian) was greater than 100 µM. For the same molecule, the TGI (CAKI-1 renal) was greater than 100 µM, the TGI (HOP-92 NSCLC) was greater than 100 µM and the TGI (HOP-18 NSCLC) was greater than 100 µM. It also gave a TGI (SK-OV-3 ovarian) greater than 100 µM, a TGI (SK-MEL-2 melanoma) greater than 100 µM and a TGI (MALME-3M melanoma) greater than 100 µM. For the same molecule, the TGI (NCI-H522 lung) was greater than 100 µM, the TGI (EKVX NSCLC) was greater than 100 µM and the TGI (UACC-257 melanoma) was greater than 100 µM. It also gave a TGI (MCF7 breast) greater than 100 µM, a TGI (NCI-H226 lung) greater than 100 µM and a TGI (LOX IMVI melanoma) greater than 100 µM. It also gave a TGI (IGROV1 ovarian) greater than 100 µM, a TGI (HL-60(TB) leukemia) greater than 100 µM and a TGI (RPMI-8226 leukemia) greater than 100 µM. The TGI (K-562 leukemia) was greater than 100 µM, the TGI (SW-620 colon) was greater than 100 µM and the TGI (NCI-H460 lung) was greater than 100 µM. The TGI (SF-295 CNS) was greater than 100 µM, the TGI (DMS 273 small cell lung) was greater than 100 µM and the TGI (RXF 393 renal) was greater than 100 µM. It also gave a TGI (SNB-75 CNS) greater than 100 µM, a TGI (SF-539 CNS) greater than 100 µM and a TGI (CCRF-CEM leukemia) greater than 100 µM. The TGI (KM20L2 colon) was greater than 100 µM, the TGI (A549 NSCLC) was greater than 100 µM and the TGI (A498 renal) was greater than 100 µM. The TGI (DLD-1 colon) was greater than 100 µM, the TGI (OVCAR-5 ovarian) was greater than 100 µM and the TGI (HCC-2998 colon) was greater than 100 µM. It also gave a TGI (NCI/ADR-RES ovarian) greater than 100 µM, a TGI (SN12C renal) greater than 100 µM and a TGI (SF-268 CNS) greater than 100 µM. The TGI (SK-MEL-28 melanoma) was greater than 100 µM, the TGI (DMS 114 small cell lung) was greater than 100 µM and the TGI (COLO 205 colon) was greater than 100 µM. It also gave a TGI (HOP-62 NSCLC) greater than 100 µM, a TGI (UACC-62 melanoma) greater than 100 µM and a TGI (U251 CNS) greater than 100 µM. For the same molecule, the TGI (OVCAR-4 ovarian) was greater than 100 µM, the TGI (HCT-15 colon) was greater than 100 µM and the TGI (P388/ADR leukemia) was greater than 100 µM. For the same molecule, the TGI (MOLT-4 leukemia) was greater than 100 µM, the TGI (SNB-19 CNS) was greater than 100 µM and the TGI (SN12K1 renal) was greater than 100 µM. The TGI (HCT-116 colon) was greater than 100 µM, the TGI (UO-31 renal) was greater than 100 µM and the TGI (NCI-H23 lung) was greater than 100 µM. The TGI (OVCAR-3 ovarian) was greater than 100 µM and the TGI (KM12 colon) was greater than 100 µM.
In the case of `CSc1nc(SC)c2c(C(N)=S)[nH]nc2n1`, the TGI (SK-MEL-5 melanoma) is reported as 34.1 µM, the TGI (HT29 colon) is reported as greater than 100 µM and the TGI (M19-MEL melanoma) is reported as 91.7 µM. It also gave a TGI (OVCAR-8 ovarian) greater than 100 µM, a TGI (RXF-631 renal) of 93.7 µM and a TGI (CAKI-1 renal) of 56.5 µM. For the same molecule, the TGI (HOP-92 NSCLC) was 50.4 µM, the TGI (SNB-78 CNS) was 85.8 µM and the TGI (SK-OV-3 ovarian) was 70.5 µM. The TGI (SK-MEL-2 melanoma) was 50.5 µM, the TGI (MALME-3M melanoma) was 88 µM and the TGI (LXFL 529 NSCLC) was greater than 100 µM. It also gave a TGI (EKVX NSCLC) of 56 µM, a TGI (UACC-257 melanoma) of 52.5 µM and a TGI (NCI-H226 lung) of 62.6 µM. The TGI (LOX IMVI melanoma) was 62.7 µM, the TGI (IGROV1 ovarian) was 94.4 µM and the TGI (RPMI-8226 leukemia) was 67.8 µM. It also gave a TGI (K-562 leukemia) of 78.9 µM, a TGI (SW-620 colon) greater than 100 µM and a TGI (NCI-H460 lung) of 64.8 µM. It also gave a TGI (SF-295 CNS) of 48.1 µM, a TGI (DMS 273 small cell lung) of 98.3 µM and a TGI (RXF 393 renal) of 61 µM. For the same molecule, the TGI (SNB-75 CNS) was 76.5 µM, the TGI (SF-539 CNS) was 60 µM and the TGI (M14 melanoma) was greater than 100 µM. For the same molecule, the TGI (CCRF-CEM leukemia) was 69.5 µM, the TGI (KM20L2 colon) was 85 µM and the TGI (A549 NSCLC) was 65.6 µM. It also gave a TGI (ACHN renal) of 74.7 µM, a TGI (SR leukemia) of 87.1 µM and a TGI (A498 renal) of 71.7 µM. The TGI (786-0 renal) was greater than 100 µM, the TGI (DLD-1 colon) was greater than 100 µM and the TGI (TK-10 renal) was 63.5 µM. For the same molecule, the TGI (SN12C renal) was greater than 100 µM, the TGI (SF-268 CNS) was greater than 100 µM and the TGI (SK-MEL-28 melanoma) was 99.5 µM. The TGI (DMS 114 small cell lung) was 83 µM, the TGI (COLO 205 colon) was 35.7 µM and the TGI (HOP-62 NSCLC) was 58.5 µM. The TGI (UACC-62 melanoma) was 55.6 µM, the TGI (U251 CNS) was 46.1 µM and the TGI (OVCAR-4 ovarian) was 55.8 µM. For the same molecule, the TGI (HCT-15 colon) was greater than 100 µM, the TGI (MOLT-4 leukemia) was 99.3 µM and the TGI (SNB-19 CNS) was 90 µM. It also gave a TGI (UO-31 renal) of 49.6 µM, a TGI (NCI-H23 lung) of 66.3 µM and a TGI (OVCAR-3 ovarian) of 57.8 µM. It also gave a TGI (KM12 colon) greater than 100 µM.
